In patent publication US5169844A, “4-substituted piperidinecarboxylic acid esters: inhibition of cholesterol absorption” (priority 1991, dated 1992):
Like-named read-outs stand apart in the source and are kept apart here.

Columns and labels:
[1] = system: acyl-coenzyme A: cholesterol acyltransferase (ACAT); test: ACAT inhibition (intracellular cholesterol esterification, procedure of Ross et al.); type: cell-based; conditions: for IC50: read-out: ACAT IC50
From the text: 1. The ability of the compounds of this invention to inhibit acyl-coenzyme A: cholesterol acyltransferase was established by initially showing that they inhibited intracellular cholesterol esterification by subjecting them to the standard experimental test procedure of Ross et al., J. Biol. Chem. 259, 815 (1984).

[2] = target: T1, cholesterol esterase (EC 3.1.1.13) from bovine pancreas (CEH) (Bos taurus, UniProt P30122); test: CEH inhibition (cholesteryl ester formation from cholesterol and oleic acid by buffered cholesterol esterase); type: biochemical
T1 construct: purchased Sigma Company, St. Louis, Mo., U.S.A. C-1892; host or cells: bovine pancreas
T1 sequence (P30122 19-597): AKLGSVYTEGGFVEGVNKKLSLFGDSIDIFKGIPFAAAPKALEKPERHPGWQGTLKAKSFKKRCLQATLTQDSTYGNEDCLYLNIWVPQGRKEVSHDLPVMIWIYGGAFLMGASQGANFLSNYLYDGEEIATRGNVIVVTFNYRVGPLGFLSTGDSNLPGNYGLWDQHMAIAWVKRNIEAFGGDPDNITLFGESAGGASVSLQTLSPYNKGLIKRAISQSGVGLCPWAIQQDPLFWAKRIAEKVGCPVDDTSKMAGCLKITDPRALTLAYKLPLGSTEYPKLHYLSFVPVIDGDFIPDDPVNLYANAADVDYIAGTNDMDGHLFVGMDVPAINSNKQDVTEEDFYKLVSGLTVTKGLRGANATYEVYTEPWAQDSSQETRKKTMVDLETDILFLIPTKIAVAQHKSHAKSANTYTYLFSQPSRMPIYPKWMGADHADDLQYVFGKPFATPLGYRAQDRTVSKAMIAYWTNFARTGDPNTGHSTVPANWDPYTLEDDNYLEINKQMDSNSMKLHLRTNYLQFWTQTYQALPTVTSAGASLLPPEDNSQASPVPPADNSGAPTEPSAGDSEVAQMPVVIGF
Protocol: 2. The ability of the compounds of this invention to inhibit the formation of cholesteryl esters and thereby interfere with and prevent assimilation of cholesterol into the lymphatic system and ultimately the blood stream was established by incubating the compounds at 37° C. with a mixture of cholesterol and oleic acid in the presence of buffered cholesterol esterase [(EC 3.1.1.13) Sigma Company, St. Louis, Mo., U.S.A., No. C-1892, from bovine pancreas] and measuring the amount of ester formed, according to the procedure of Field, J. of Lipid Research, 25 389 (1984).

[3] = system: Absorption of 14C-cholesterol in normal rat; test: In vivo cholesterol absorption, oral [4-14C] cholesterol, normal rats; conditions: read-out: Effect on Absorption of 14C-Chol., % Decrease
Protocol: The in vivo cholesterol absorption studies were conducted in normal rats by oral administration of the compound being tested in propylene glycol and olive oil followed by oral administration of [4-^14 C] cholesterol in propylene glycol and olive oil, otherwise following the procedure of Cayen et al., J. Lipid Res. 20 162 (1979). The serum radioactivity was measured at six hours after dosing. The results of this study are reported in the following table, where available, as percent decrease compared to control and in terms of the effective dose (ED50) inhibiting fifty-percent of the absorption of the control animals.

[4] = 37° C., bovine pancreas enzyme, read-out: CEH IC50
[5] = normal rat, oral, 6 hr, 10 mg/kg, serum radioactivity vs control
[6] = normal rat, oral, 6 hr, serum radioactivity vs control

Row | Structure (SMILES) | ACAT % inhibition at 25 μM [1] [%] | IC50 [1] [nM] | IC50 [2, 4] [nM] | inhibition in vivo at 10 mg/kg [3, 5] [%] | further results
1 | CCCCNC(=O)OC1CCN(C(=O)Oc2ccc(Oc3ccccc3)cc2)CC1 [Example 2, 4-[[(Butylamino)carbonyl]oxy]-1-piperidinecarboxylic acid 4-phenoxyphenyl ester] | 96 | 2000 |  |  | IC50 [2]: 2300 nM
2 | CCCCCCNC(=O)OC1CCN(C(=O)Oc2ccc(Oc3ccccc3)cc2)CC1 [Example 3, 4-[[(Hexylamino)carbonyl]oxy]-1-piperidinecarboxylic acid 4-phenoxyphenyl ester] | 94 | 640 |  |  | IC50 [2]: 9800 nM; inhibition in vivo at 10 mg/kg ([3]; Rattus norvegicus, po, 6 h): 85%
3 | CCCCCCCCNC(=O)OC1CCN(C(=O)Oc2ccc(Oc3ccccc3)cc2)CC1 [Example 4, 4-[[(Octylamino)carbonyl]oxy]-1-piperidinecarboxylic acid 4-phenoxyphenyl ester] | 94 | 820 | > 100000 |  | inhibition in vivo at 100 mg/kg ([3]; normal rat, oral, 6 hr, 100 mg/kg, serum radioactivity vs control): 92%
4 | O=C(NC1CCCCC1)OC1CCN(C(=O)Oc2ccc(Oc3ccccc3)cc2)CC1 [Example 5, 4-[[(Cyclohexylamino)carbonyl]oxy]-1-piperidinecarboxylic acid 4-phenoxyphenyl ester] | 92 | 1680 | 9500 | 89 | 
5 | CCCCCCCCCCCCNC(=O)OC1CCN(C(=O)Oc2ccc(Oc3ccccc3)cc2)CC1 [Example 6, 4-[[(Dodecylamino)carbonyl]oxy]-1-piperidinecarboxylic acid 4-phenoxyphenylester] | 88 | 510 | 16000 | 57 | 
6 | CCCCCCCCCCCCCCCCCCNC(=O)OC1CCN(C(=O)Oc2ccc(Oc3ccccc3)cc2)CC1 [Example 7, 4-[[(Octadecylamino)carbonyl]oxy]-1-piperidinecarboxylic acid 4-phenoxyphenyl ester] |  |  | > 100000 |  | inhibition in vivo at 25 mg/kg [3, 6]: 28%
7 | CC(C)CCCC(C)NC(=O)OC1CCN(C(=O)Oc2ccc(Oc3ccccc3)cc2)CC1 (stereo not shown) [Example 8, 4-[[[(1,5-Dimethylhexyl)amino]carbonyl]oxy]-1-piperidinecarboxylic acid 4-phenoxyphenyl ester] |  |  | 13000 |  | 
8 | CC1CCN(C(=O)OC2CCN(C(=O)Oc3ccc(Oc4ccccc4)cc3)CC2)CC1 [Example 9] |  |  | 1100 |  | 
9 | CCCCCCCN(Cc1ccc(CC(C)(C)C)cc1)C(=O)OC1CCN(C(=O)Oc2ccc(Oc3ccccc3)cc2)CC1 [Example 10, 4-[[[[[4-(2,2-Dimethylpropyl)phenyl]methyl]heptylamino]carbonyl]oxy]-1-piperidinecarboxylic acid 4-phenoxyphenyl ester] | 84 | 3300 | > 100000 |  | 
10 | CNC(=O)OC1CCN(C(=O)Oc2ccc(Oc3ccccc3)cc2)CC1 [Example 11, 4-[[(Methylamino)carbonyl]oxy]-1-piperidinecarboxylic acid 4-phenoxyphenyl ester] |  |  |  |  | IC50 [2]: 2100 nM
11 | CCN(CC)C(=O)OC1CCN(C(=O)Oc2ccc(Oc3ccccc3)cc2)CC1 [Example 12, 4-[[(Diethylamino)carbonyl]oxy]-1-piperidinecarboxylic acid 4-phenoxyphenylester] | 93 | 1370 |  |  | IC50 [2]: 11400 nM
12 | O=C(NCCCCc1ccccc1)OC1CCN(C(=O)Oc2ccc(Oc3ccccc3)cc2)CC1 [Example 13, 4-[[[(4-Phenylbutyl)amino]carbonyl]oxy]-1-piperidinecarboxylic acid 4-phenoxyphenyl ester] | 96 | 230 | 5000 | 41 | 
13 | CCCCCCCC/C=C\CCCCCCCCNC(=O)OC1CCN(C(=O)Oc2ccc(Oc3ccccc3)cc2)CC1 [Example 14] |  |  | 43000 |  | inhibition in vivo at 25 mg/kg [3, 6]: 21%
14 | O=C(Oc1ccc(Oc2ccccc2)cc1)N1CCC(OC(=O)N2CCSCC2)CC1 [Example 15, 4-Thiomorpholinecarboxylic acid 1-[(4-phenxoyphenoxy)carbonyl]-4-piperidinyl ester] |  |  | 79000 |  | 
15 | O=C(Oc1ccc(Oc2ccccc2)cc1)N1CCC(OC(=O)N2CCC(c3ccccc3)CC2)CC1 [Example 16, 4-Phenyl-1-piperidinecarboxylic acid 1-[(4-phenoxyphenoxy)carbonyl]-4-piperidinyl ester] | 91 | 510 | 12000 | 48 | 
16 | O=C(NCC1CCCCC1)OC1CCN(C(=O)Oc2ccc(Oc3ccccc3)cc2)CC1 [Example 17, 4-[[[(Cyclohexylmethyl)amino]carbonyl]oxy]-1-piperidinecarboxylic acid 4-phenoxyphenyl ester] | 97 | 490 | 19000 |  | inhibition in vivo at 3 mg/kg ([3]; normal rat, oral, 6 hr, 3 mg/kg, serum radioactivity vs control): 68%
17 | CCCCCCNC(=O)OC1CCN(C(=O)Oc2ccc(Oc3ccc(C)cc3)cc2)CC1 [Example 18, 4-[[(Hexylamino)carbonyl]oxy]-1-piperidinecarboxylic acid 4-(4-methylphenoxy)phenyl ester] |  |  | 2000 | 25 | 
18 | CCCCCCNC(=O)OC1CCN(C(=O)Oc2ccc(Oc3ccc(OC)cc3)cc2)CC1 [Example 19, 4-[[(Hexylamino)carbonyl]oxy]-1-piperidinecarboxylic acid 4-(4-methoxyphenoxy)phenyl ester] |  |  | 2800 | 29 | 
